Bounds are passed on as bounds.

The target of the assay is T1, human OX2R (Homo sapiens, UniProt O43614).
T1 construct: expressed in transfected cells; host or cells: CHO (Chinese hamster ovary) cells, grown under G418 selection
T1 sequence (O43614 1-444): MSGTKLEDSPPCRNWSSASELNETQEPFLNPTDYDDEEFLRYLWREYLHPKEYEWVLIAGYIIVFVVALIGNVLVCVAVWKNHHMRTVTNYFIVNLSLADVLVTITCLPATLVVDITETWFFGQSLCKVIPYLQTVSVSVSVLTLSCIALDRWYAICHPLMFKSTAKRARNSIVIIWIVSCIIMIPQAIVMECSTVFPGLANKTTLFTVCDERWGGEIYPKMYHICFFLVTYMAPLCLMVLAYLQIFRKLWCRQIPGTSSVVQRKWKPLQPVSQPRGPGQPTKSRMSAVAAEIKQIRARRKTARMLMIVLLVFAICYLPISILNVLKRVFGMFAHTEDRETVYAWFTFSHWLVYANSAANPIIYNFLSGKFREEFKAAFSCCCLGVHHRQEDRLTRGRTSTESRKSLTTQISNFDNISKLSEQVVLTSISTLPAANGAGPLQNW
As to the kind of experiment: IP-One (IPOne) orexin receptor agonist assay in CHO cells expressing human OX2R. It is filed as cell-based. The conditions noted are these: for EC50: CHO cells expressing human OX2R, IP-One IP-1 detection, 2 hours incubation, four parameter logistic fit, read-out: OX2R Potency, EC50; for % of reference agonist maximal effect: human OX2R, percentage of sample raw value/mean max effect (reference compound at 1 uM with 100% activity). An outline of the steps:
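CHO cells stably expressing human OX2R were stimulated with compound (10-point ½-log dilutions) for 2 h at 37 °C. IP-1 accumulation was read by HTRF (IP-One, 665/620 nm). EC50 from a four-parameter fit; % effect relative to 1 μM reference agonist control.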

The term EC50 denotes the midpoint of the concentration-response curve. Consider `CC(C)[C@H]1CC[C@@H](OC[C@H]2[C@@H](c3cc[nH]n3)CCCN2C(=O)NCc2ccccc2)CC1` (relative stereo) [Example 122, (CIS)-N-benzyl-2-((((CIS)-4-isopropylcyclohexyl)oxy)methyl)-3-(1H-pyrazol-3-yl)piperidine-1-carboxamide], for which the EC50 is 2.42 µM and the “% of reference agonist maximal effect” value came out at 93.6%.
In the same order, the values of `CC(C)[C@H]1CC[C@@H](OC[C@H]2[C@@H](c3cc[nH]n3)CCCN2C(=O)NCC2CCCCC2)CC1` (relative stereo) [Example 123, (CIS)-N-(cyclohexylmethyl)-2-((((CIS)-4-isopropylcyclohexyl)oxy)methyl)-3-(1H-pyrazol-3-yl)piperidine-1-carboxamide] are 6.73 µM and 87.9%.
Regarding `CC(C)[C@H]1CC[C@@H](OC[C@H]2[C@@H](c3cc[nH]n3)CCCN2C(=O)NC2CCCCC2)CC1` (relative stereo) [Example 124, (CIS)-N-cyclohexyl-2-((((CIS)-4-isopropylcyclohexyl)oxy)methyl)-3-(1H-pyrazol-3-yl)piperidine-1-carboxamide], the concentration for a half-maximal effect (EC50) is 8.2 µM and the “% of reference agonist maximal effect” value came to 92.3%.
The matching figures for `O=C(NCC1CCC1)N1CCC[C@H](c2cc[nH]n2)[C@@H]1CO[C@H]1CC[C@@H](c2ccccc2)CC1` (relative stereo) [Example 125, (CIS)-N-(cyclobutylmethyl)-2-((((CIS)-4-phenylcyclohexyl)oxy)methyl)-3-(1H-pyrazol-3-yl)piperidine-1-carboxamide]: 0.0224 µM and 99.1%.
In the same order, the values of `COCC(C)NC(=O)N1CCC[C@H](c2cc[nH]n2)[C@@H]1CO[C@H]1CC[C@@H](c2ccccc2)CC1` (relative stereo) [Example 126, (CIS)-N-(1-methoxypropan-2-yl)-2-((((CIS)-4-phenylcyclohexyl)oxy)methyl)-3-(1H-pyrazol-3-yl)piperidine-1-carboxamide] are 0.944 µM and 100%.
In the same order, the values of `O=C(NC1COC1)N1CCC[C@H](c2cc[nH]n2)[C@@H]1CO[C@H]1CC[C@@H](c2ccccc2)CC1` (relative stereo) [Example 127, (CIS)-N-(oxetan-3-yl)-2-((((CIS)-4-phenylcyclohexyl)oxy)methyl)-3-(1H-pyrazol-3-yl)piperidine-1-carboxamide] are 4.38 µM and 72%.
Take `CCNC(=O)N1CCC[C@H](c2ccn[nH]2)[C@@H]1CO[C@H]1CC[C@@H](c2ccccc2)CC1` (single isomer, unassigned) [Example 1, (CIS)-N-ethyl-2-((((CIS)-4-phenylcyclohexyl)oxy)methyl)-3-(1H-pyrazol-5-yl)piperidine-1-carboxamide]: the concentration for a half-maximal effect (EC50) was determined as 0.0673 µM and the “% of reference agonist maximal effect” value is listed as 102.6%.
Take `CCNC(=O)N1CCC[C@H](c2ccn[nH]2)[C@@H]1CO[C@H]1CC[C@@H](C(C)C)CC1` (single isomer, unassigned) [Example 4]: the EC50 came to 0.276 µM and the “% of reference agonist maximal effect” value came to 100.6%.
The matching figures for `CCNC(=O)N1CCC[C@@H](c2ccn[nH]2)[C@H]1CO[C@H]1CC[C@@H](C(C)C)CC1` (single isomer, unassigned) [Example 5]: 3.19 µM and 99.6%.
In the same order, the values of `CCNC(=O)N1CCC[C@H](c2n[nH]cc2C)[C@@H]1CO[C@H]1CC[C@@H](c2cccc(F)c2)CC1` (single isomer, unassigned) [Example 11] are 0.0023 µM and 100.1%.
In the same order, the values of `CCNC(=O)N1CCC[C@@H](c2n[nH]cc2C)[C@H]1CO[C@H]1CC[C@@H](c2cccc(F)c2)CC1` (single isomer, unassigned) [Example 12] are 0.414 µM and 100.0%.
In the case of `CCNC(=O)N1CCC[C@H](c2cc[nH]n2)[C@@H]1CO[C@H]1CC[C@@H](c2ccccc2)CC1` (single isomer, unassigned) [Example 18, (CIS)-N-ethyl-2-((((CIS)-4-phenylcyclohexyl)oxy)methyl)-3-(1H-pyrazol-3-yl)piperidine-1-carboxamide], the EC50 was determined as 0.0547 µM and the “% of reference agonist maximal effect” value is reported as 98.8%.
In the same order, the values of `O=C(C1CC1)N1CCC[C@H](c2cc[nH]n2)[C@@H]1CO[C@H]1CC[C@@H](c2ccccc2)CC1` (single isomer, unassigned) [Example 20, cyclopropyl((CIS)-2-((((CIS)-4-phenylcyclohexyl)oxy)methyl)-3-(1H-pyrazol-3-yl)piperidin-1-yl)methanone] are 0.682 µM and 97.4%.
In the same order, the values of `CCc1c[nH]nc1[C@H]1CCCN(C(=O)OC)[C@H]1CO[C@H]1CC[C@@H](c2ccccc2)CC1` (single isomer, unassigned) [Example 43] are 0.163 µM and 100.4%.
In the same order, the values of `COC(=O)N1CCC[C@H](c2n[nH]cc2Cl)[C@@H]1CO[C@H]1CC[C@@H](c2ccccc2)CC1` (single isomer, unassigned) [Example 45] are 0.0794 µM and 100.2%.
As for `COC(=O)N1CCC[C@@H](c2n[nH]cc2Cl)[C@H]1CO[C@H]1CC[C@@H](c2ccccc2)CC1` (single isomer, unassigned) [Example 46], the 50% effective concentration (EC50) was above 10 µM and the “% of reference agonist maximal effect” value is 0%.
On to `COC(=O)N1CCC[C@H](c2n[nH]cc2C(C)C)[C@@H]1CO[C@H]1CC[C@@H](c2ccccc2)CC1` (single isomer, unassigned) [Example 49], for which the half-maximal effective concentration (EC50) turned out to be 0.795 µM and the “% of reference agonist maximal effect” value came to 99.0%.
In the same order, the values of `COC(=O)N1CCC[C@@H](c2n[nH]cc2C(C)C)[C@H]1CO[C@H]1CC[C@@H](c2ccccc2)CC1` (single isomer, unassigned) [Example 50] are above 10 µM and 5.2%.
The matching figures for `COC(=O)N1CCC[C@H](c2n[nH]cc2C#N)[C@@H]1CO[C@H]1CC[C@@H](c2ccccc2)CC1` (single isomer, unassigned) [Example 51]: 0.227 µM and 99.0%.
On to `COC(=O)N1CCC[C@@H](c2n[nH]cc2C#N)[C@H]1CO[C@H]1CC[C@@H](c2ccccc2)CC1` (single isomer, unassigned) [Example 52], for which the EC50 was above 10 µM and the “% of reference agonist maximal effect” value worked out at 0%.
Consider `COC(=O)N1CCC[C@@H](c2n[nH]cc2CO)[C@H]1CO[C@H]1CC[C@@H](c2ccccc2)CC1` (single isomer, unassigned) [Example 54], for which the EC50 is above 10 µM and the “% of reference agonist maximal effect” value stood at 15.7%.
In the same order, the values of `COC(=O)N1CCC[C@H](c2n[nH]cc2C(F)F)[C@@H]1CO[C@H]1CC[C@@H](c2ccccc2)CC1` (single isomer, unassigned) [Example 55] are 0.0975 µM and 100.8%.
For the compound `CCNC(=O)N1CCCC(c2[nH]ncc2C)C1COC1CCC(C(C)C)CC1` (single isomer, unassigned) [Example 58, N-ethyl-2-(((4-isopropylcyclohexyl)oxy)methyl)-3-(4-methyl-1H-pyrazol-5-yl)piperidine-1-carboxamide], the concentration for a half-maximal effect (EC50) was above 10 µM and the “% of reference agonist maximal effect” value is 0%.
The matching figures for `CCNC(=O)N1CCCC(c2[nH]ncc2C)C1COC1CCC(C(C)C)CC1` (single isomer, unassigned) [Example 59, N-ethyl-2-(((4-isopropylcyclohexyl)oxy)methyl)-3-(4-methyl-1H-pyrazol-5-yl)piperidine-1-carboxamide]: 0.593 µM and 98.3%.
In the same order, the values of `CCNC(=O)N1CCCC(c2[nH]ncc2C)C1COC1CCC(C(C)C)CC1` (single isomer, unassigned) [Example 60, N-ethyl-2-(((4-isopropylcyclohexyl)oxy)methyl)-3-(4-methyl-1H-pyrazol-5-yl)piperidine-1-carboxamide] are 0.0563 µM and 100%.
The matching figures for `CCNC(=O)N1CCCC(c2[nH]ncc2C)C1COC1CCC(C(C)C)CC1` (single isomer, unassigned) [Example 61, N-ethyl-2-(((4-isopropylcyclohexyl)oxy)methyl)-3-(4-methyl-1H-pyrazol-5-yl)piperidine-1-carboxamide]: 3.51 µM and 87.4%.
Consider `CCNC(=O)N1CCCC(c2nc[nH]n2)C1CO[C@H]1CC[C@@H](C(C)C)CC1` (single isomer, unassigned) [Example 62, N-ethyl-2-((((CIS)-4-isopropylcyclohexyl)oxy)methyl)-3-(1H-1,2,4-triazol-3-yl)piperidine-1-carboxamide], for which the EC50 was above 10 µM and the “% of reference agonist maximal effect” value was 11.9%.

Source of the values: patent US12552767B2, “3-heteroaryl pyrrolidine and piperidine orexin receptor agonists” (Merck Sharp & Dohme LLC, priority 2020, dated 2026).
